Data reported in patent US4226875A, “Novel spiro-oxazolidinediones” (Pfizer Inc., priority 1979, dated 1980).

How the values were obtained:
[1] = test system: sorbitol accumulation in the sciatic nerve of streptozotocinized (i.e., diabetic) rats; assay: sorbitol accumulation in the sciatic nerve of streptozotocinized (diabetic) rats; format: in vivo; settings: oral; 50 mg/kg body weight; preliminary tests
Excerpt: (§1) The activity of the compounds of the present invention as agents for the control of chronic diabetic complications may be determined by a number of standard biological or pharmacological tests. Suitable tests include (1) measuring their ability to inhibit the enzyme activity of isolated aldose reductase; (2) measuring their ability to reduce or inhibit sorbitol accumulation in the sciatic nerve of acutely streptozotocinized (i.e. diabetic) rats; (3) measuring their ability to reverse already elevated sorbitol levels in the sciatic nerve and lens of chronic streptozotocin-induced diabetic rats; (4) measuring their ability to prevent or inhibit galactitol formation in the lens of acutely galactosemic rats; and (5) measuring their ability to delay cataract formation and reduce the severity of lens opacities in chronic galactosemic rats. Suitable experimental procedures are described in U.S. Pat. No. 3,821,383 and the references cited therein.
(§2) The substrate employed was partially purified aldose reductase enzyme obtained from calf lens. […] Thus, for example, the compounds may be tested for their ability to reduce or inhibit sorbitol accumulation in the sciatic nerve of streptozotocinized (i.e., diabetic) rats by the procedure essentially described in U.S. Pat. No. 3,821,383. The amount of sorbitol accumulation in the sciatic nerves is measured 27 hours after induction of diabetes. […]

[2] = test system: partially purified aldose reductase enzyme obtained from calf lens; assay: inhibition of aldose reductase enzyme activity (procedure of US 3,821,383 / Hayman et al.); format: biochemical; settings: compound concentration 10^-4 M
Excerpt: as §1, §2

percent inhibition of enzyme activity [2]	SMILES	activity in reducing or inhibiting sorbitol accumulation in the sciatic nerve [1]
75%	O=C1NC(=O)C2(CCCc3ccccc32)O1 (stereo not drawn) [1',2',3',4'-tetrahydro-spiro-[oxazolididine(5,1')naphthalene]-2,4-dione]	no significant activity
81%	O=C1NC(=O)C2(CCc3ccccc32)O1 (stereo not drawn) [Spiro-[indane(1,5')oxazolidine]-2',4'-dione]	
